In publication PMC10182977 (Nature Communications, 2023):

Key:
[1] = target: T1, xlCHPT1 (Xenopus laevis, UniProt Q4KLV1); assay: cryo-EM structure, ~[…] Å; format: binding; conditions: Mg2+ complex; 10 mM CDP and 0.5 mM DAG added; CDP-choline active site
T1 construct: gene chpt1; full-length, codon-optimized; C-terminal His6-tag cleaved with TEV protease; Hi Five (Trichoplusia ni) baculovirus; detergent-purified homodimer; residues 20-383 modelled
T1 sequence (Q4KLV1 1-402): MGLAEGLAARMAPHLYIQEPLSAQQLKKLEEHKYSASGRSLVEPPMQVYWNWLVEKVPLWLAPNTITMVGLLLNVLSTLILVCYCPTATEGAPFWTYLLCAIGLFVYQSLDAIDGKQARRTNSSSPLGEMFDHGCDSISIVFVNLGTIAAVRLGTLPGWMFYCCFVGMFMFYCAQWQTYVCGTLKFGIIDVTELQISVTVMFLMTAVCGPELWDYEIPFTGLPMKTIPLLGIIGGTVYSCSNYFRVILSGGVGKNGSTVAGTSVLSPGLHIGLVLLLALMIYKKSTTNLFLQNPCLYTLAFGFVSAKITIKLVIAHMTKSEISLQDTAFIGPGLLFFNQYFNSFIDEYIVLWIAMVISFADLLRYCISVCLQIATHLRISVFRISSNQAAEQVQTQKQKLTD

[2] = target: the molecule itself; assay: cryo-EM structure; single-particle cryo-EM of purified xlCHPT1 in 20 mM HEPES, 150 mM NaCl, 2 mM BME, 4 mM MgCl2, 0.02% GDN; with 10 mM CDP-choline, or with 10 mM CDP and 0.5 mM DAG; refined with C2 symmetry

Molecule: Nc1ccn([C@@H]2O[C@H](COP(=O)(O)OP(=O)(O)O)[C@@H](O)[C@H]2O)c(=O)n1 [CDP]
- cryo-EM structure, ~3.2 Å [1]: xlCHPT1 in complex with CDP have been deposited in the PDB under the accession code 8ERO

B1: Xenopus laevis cholinephosphotransferase-1 (enzyme, UniProt Q4KLV1 1-402, looked up)
chain: T1 sequence (Q4KLV1 1-402)
notes: cholinephosphotransferase-1 (CHPT1) of Xenopus laevis, full length, codon-optimized gene; residues 20-383 are resolved in the cryo-EM models, the first 19 and the last 18 residues are not resolved; The His6 tag was cleaved with TEV protease; residues of the cleavage site may be left at the C-terminus; also called xlCHPT1; CHPT1; source: Hi Five (Trichoplusia ni) cells, baculovirus, purified (LMNG …)
- stoichiometry N [2]: 2
